Experimental data: patent US20240190890A1, “MK2 INHIBITORS AND USES THEREOF” (Bristol-Myers Squibb Company, priority 2022, published 2024)

Target: p38a activated, mitogen-activated protein kinase-activated protein kinase 2 (MAPKAP-K2 or MK2) enzyme (Homo sapiens (Human), UniProt P49137)
Test: MK2 Omnia continuous-read kinase assay for compound potency
Assay type: biochemical
Conditions: [MK-2]=0.4 nM, [ATP]=10 μM, [ST3-Sox]=10 μM; room temperature
In short: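 p38a-activated MK2 (0.4 nM) with 10 μM ATP (apparent Km) and 10 μM S/T3-Sox peptide in Tris pH 7.5 buffer with MgCl2, EGTA and DTT. Fluorescence (ex360/em485) read continuously for 120 min at room temperature. IC50 from initial linear slopes; apparent kinact/KI from kobs of exponential progress-curve fits.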

p38a activated, mitogen-activated protein kinase-activated protein kinase 2 (MAPKAP-K2 or MK2) enzyme, sequence (P49137 whole entry): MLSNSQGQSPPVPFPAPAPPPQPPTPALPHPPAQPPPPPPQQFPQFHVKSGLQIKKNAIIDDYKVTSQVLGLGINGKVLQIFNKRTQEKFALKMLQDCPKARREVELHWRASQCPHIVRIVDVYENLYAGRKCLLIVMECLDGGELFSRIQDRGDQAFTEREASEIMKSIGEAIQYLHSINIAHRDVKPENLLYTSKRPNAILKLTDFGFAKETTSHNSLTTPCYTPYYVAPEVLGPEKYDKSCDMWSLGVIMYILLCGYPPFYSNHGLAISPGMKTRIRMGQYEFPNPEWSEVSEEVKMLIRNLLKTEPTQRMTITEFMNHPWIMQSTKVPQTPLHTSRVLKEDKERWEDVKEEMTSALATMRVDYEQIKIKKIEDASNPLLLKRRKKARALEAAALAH

Row | Compound | IC50 [nM]
1 | C=Cc1cccc(-c2ccc3c(ccc4sc5c(c43)NC[C@@H](C)NC5=O)n2)n1 [Example I-54, (R)-10-methyl-3-(6-vinylpyridin-2-yl)-9,10,11,12-tetrahydro-8H-[1,4]diazepino[5′,6′:4,5]thieno[3,2-f]quinolin-8-one] | 61
2 | C[C@@H]1CNc2c(sc3ccc4nc(-c5nc(Cl)ncc5COC5COC5)ccc4c23)C(=O)N1 [Example I-20, (R)-3-(2-chloro-5-((oxetan-3-yloxy)methyl)pyrimidin-4-yl)-10-methyl-9,10,11,12-tetrahydro-8H-[1,4]diazepino[5′,6′:4,5]thieno[3,2-f]quinolin-8-one] | 224
3 | C#Cc1nc(CO)cc(-c2ccc3c(ccc4sc5c(c43)NC[C@@H](C)NC5=O)n2)n1 [Example I-86, (R)-3-(2-ethynyl-6-(hydroxymethyl)pyrimidin-4-yl)-10-methyl-9,10,11,12-tetrahydro-8H-[1,4]diazepino[5′,6′:4,5]thieno[3,2-f]quinolin-8-one] | 23
4 | C#Cc1cc(N2CCN(C)CC2)nc(-c2ccc3c(ccc4sc5c(c43)NC[C@@H](C)NC5=O)n2)n1 [Example I-61, (R)-3-(4-ethynyl-6-(4-methylpiperazin-1-yl)pyrimidin-2-yl)-10-methyl-9,10,11,12-tetrahydro-8H-[1,4]diazepino[5′,6′:4,5]thieno[3,2-f]quinolin-8-one] | 73
5 | C=C(C)c1ncc(COCC)c(-c2ccc3c(ccc4sc5c(c43)NC[C@@H](C)NC5=O)n2)n1 [Example I-50, (R)-3-(5-(ethoxymethyl)-2-(prop-1-en-2-yl)pyrimidin-4-yl)-10-methyl-9,10,11,12-tetrahydro-8H-[1,4]diazepino[5′,6′:4,5]thieno[3,2-f]quinolin-8-one] | 1000
6 | C[C@@H]1CNc2c(sc3ccc4nc(-c5cc(Cl)ncn5)ccc4c23)C(=O)N1 [Example I-11, (R)-3-(6-chloropyrimidin-4-yl)-10-methyl-9,10,11,12-tetrahydro-8H-[1,4]diazepino[5′,6′:4,5]thieno[3,2-f]quinolin-8-one] | 2
7 | C=Cc1cc(-c2ccc3c(ccc4sc5c(c43)NC[C@@H](C)NC5=O)n2)ncn1 [Example I-34, (R)-10-methyl-3-(6-vinylpyrimidin-4-yl)-9,10,11,12-tetrahydro-8H-[1,4]diazepino[5′,6′:4,5]thieno[3,2-f]quinolin-8-one] | 13
8 | C[C@@H]1CNc2c(sc3ccc4nc(-n5cc(Cl)cn5)ccc4c23)C(=O)N1 [Example I-152, (R)-3-(4-chloro-1H-pyrazol-1-yl)-10-methyl-9,10,11,12-tetrahydro-8H-[1,4]diazepino[5′,6′:4,5]thieno[3,2-f]quinolin-8-one] | 86
9 | C=Cc1cc(-c2ccc3c(ccc4sc5c(c43)NC[C@@H](C)NC5=O)n2)c(C2CC2)cn1 [Example I-196, (R)-3-(5-cyclopropyl-2-vinylpyridin-4-yl)-10-methyl-9,10,11,12-tetrahydro-8H-[1,4]diazepino[5′,6′:4,5]thieno[3,2-f]quinolin-8-one] | 5
10 | C/C=C\c1ncc(F)c(-c2ccc3c(ccc4sc5c(c43)NC[C@@H](C)NC5=O)n2)n1 [Example I-46, (R,Z)-3-(5-fluoro-2-(prop-1-en-1-yl)pyrimidin-4-yl)-10-methyl-9,10,11,12-tetrahydro-8H-[1,4]diazepino[5′,6′:4,5]thieno[3,2-f]quinolin-8-one] | 765
11 | C[C@@H]1CNc2c(sc3ccc4nc(-c5cc(C#CC(C)(C)N)nc(Cl)n5)ccc4c23)C(=O)N1 [Example I-63, (R)-3-(6-(3-amino-3-methylbut-1-yn-1-yl)-2-chloropyrimidin-4-yl)-10-methyl-9,10,11,12-tetrahydro-8H-[1,4]diazepino[5′,6′:4,5]thieno[3,2-f]quinolin-8-one] | 145
12 | C=Cc1ncn(-c2ccc3c(ccc4sc5c(c43)NC[C@@H](C)NC5=O)n2)n1 [Example I-207, (R)-10-methyl-3-(3-vinyl-1H-1,2,4-triazol-1-yl)-9,10,11,12-tetrahydro-8H-[1,4]diazepino[5′,6′:4,5]thieno[3,2-f]quinolin-8-one] | 26
13 | C=Cc1cc(-c2ccc3c(ccc4sc5c(c43)NC[C@@H](C)NC5=O)n2)cc(CO)n1 [Example I-99, (R)-3-(2-(hydroxymethyl)-6-vinylpyridin-4-yl)-10-methyl-9,10,11,12-tetrahydro-8H-[1,4]diazepino[5′,6′:4,5]thieno[3,2-f]quinolin-8-one] | 2
14 | (R)-10-methyl-3-(2-(4-methylpiperazin-1-yl)-6-vinylpyridin-4-yl)-9,10,11,12-tetrahydro-8H-[1,4]diazepino[5′,6′:4,5]thieno[3,2-f]quinolin- [Example I-96] | 10
15 | C=Cc1cc(-c2ccc3c(ccc4sc5c(c43)NC[C@@H](C)NC5=O)n2)c(COCC)cn1 [Example I-262, (R)-3-(5-(ethoxymethyl)-2-vinylpyridin-4-yl)-10-methyl-9,10,11,12-tetrahydro-8H-[1,4]diazepino[5′,6′:4,5]thieno[3,2-f]quinolin-8-one] | 35
16 | C=Cc1cnn(C)c1-c1ccc2c(ccc3sc4c(c32)NC[C@@H](C)NC4=O)n1 [Example I-146, (R)-10-methyl-3-(1-methyl-4-vinyl-1H-pyrazol-5-yl)-9,10,11,12-tetrahydro-8H-[1,4]diazepino[5′,6′:4,5]thieno[3,2-f]quinolin-8-one] | 499
17 | C[C@@H]1CNc2c(sc3ccc4nc(-c5cc(Cl)ncc5C(F)F)ccc4c23)C(=O)N1 [Example I-93, (R)-3-(2-chloro-5-(difluoromethyl)pyridin-4-yl)-10-methyl-9,10,11,12-tetrahydro-8H-[1,4]diazepino[5′,6′:4,5]thieno[3,2-f]quinolin-8-one] | 238
18 | C=Cc1ncc(COC2CCOCC2)c(-c2ccc3c(ccc4sc5c(c43)NC[C@@H](C)NC5=O)n2)n1 [Example I-25, (R)-10-methyl-3-(5-(((tetrahydro-2H-pyran-4-yl)oxy)methyl)-2-vinylpyrimidin-4-yl)-9,10,11,12-tetrahydro-8H-[1,4]diazepino[5′,6′:4,5]thieno[3,2-f]quinolin-8-one] | 43
19 | C[C@@H]1CNc2c(sc3ccc4nc(-c5cc(Cl)ncc5C#N)ccc4c23)C(=O)N1 [Example I-160, (R)-6-chloro-4-(10-methyl-8-oxo-9,10,11,12-tetrahydro-8H-[1,4]diazepino[5′,6′:4,5]thieno[3,2-f]quinolin-3-yl)nicotinonitrile] | 3
20 | C=Cc1cc(-c2ccc3c(ccc4sc5c(c43)NC[C@@H](C)NC5=O)n2)c(NC)nn1 [Example I-128, (R)-10-methyl-3-(3-(methylamino)-6-vinylpyridazin-4-yl)-9,10,11,12-tetrahydro-8H-[1,4]diazepino[5′,6′:4,5]thieno[3,2-f]quinolin-8-one] | 19
21 | C[C@@H]1CNc2c(sc3ccc4nc(-c5nc(Cl)ncc5C(F)(F)F)ccc4c23)C(=O)N1 [Example I-4, (R)-3-(2-chloro-5-(trifluoromethyl)pyrimidin-4-yl)-10-methyl-9,10,11,12-tetrahydro-8H-[1,4]diazepino[5′,6′:4,5]thieno[3,2-f]quinolin-8-one] | 1
22 | C#Cc1cc(-c2ccc3c(ccc4sc5c(c43)NC[C@@H](C)NC5=O)n2)c(Cl)cn1 [Example I-144, (R)-3-(5-chloro-2-ethynylpyridin-4-yl)-10-methyl-9,10,11,12-tetrahydro-8H-[1,4]diazepino[5′,6′:4,5]thieno[3,2-f]quinolin-8-one] | 678
